Peptide text beside a SMILES is read from it.
Legend:
[1] = tested on: ERK1/2; experiment: ERK1/2 phosphorylation (AlphaScreen SureFire) in rat renal myofibroblasts endogenously expressing RXFP1; type: cell-based
Method: The inventors then tested the single chain B7-33 C11.23S relaxin-2 peptide for its ability to signal via different pathways, cAMP (see Example 2) and pERK.1/2 on HEK-293T (cells stably expressing RXFP1) and myofibroblast cells (cells endogenously expressing RXFP1) The cAMP assay was conducted as described in Example 2. Phosphorylation of ERK1/2 was determined using AlphaScreen SureFire® assay which is a proprietary, non-radioactive and non-Western proximity assay that relies on singlet oxygen energy transfer (PerkinElmer Inc.). Rat renal fibroblasts (that endogenously express RXFP1 receptor) were seeded into a 96-well plate at a density of 40,000 cells per well and incubated overnight in complete media to allow cell adhesion. Cells were then serum-starved for 4-6 hours followed by native H2 relaxin (100 nM) or B7-33 C11.23S peptide (100 nM) treatment for periods of up to 20 minutes and ERK1/2 activation was quantified using the phospho-ERK1/2 Surefire AlphaScreen kit.

[2] = tested on: rat model of myocardial infarction; experiment: Rat model of myocardial infarction-induced heart failure; type: in vivo; details: vs vehicle
Method: Adult male Sprague-Dawley rats weighing 250-320 g were obtained from Animal Resources Centre, Perth, Wash., Australia. The rats were group housed in a constant temperature of 22±1° C. and a relative humidity of 50-60% under a controlled light-dark cycle of 12 hours. Rats were given access to standard laboratory rat chow and drinking water ad libitum.
Heart failure was induced as previously described (Ruchaya et al., 2014, Exp Physiol 99, 111-122). Breifly, to induce heart failure, rats were anaesthetised with an intramuscular injection of ketamine (60 mg/kg) and medetomide hydrochloride ([…]). A left sided thoracotomy through an opening between the fourth and fifth rib was performed, the heart was exteriorised and the left anterior descending coronary artery was ligated. Anaesthesia was reversed with antipamezole hydrocholide (1 mg/kg). Penicillin (1000 U) and buprenorphine (0.05 mg/kg) was administered to aid post-operative recovery. Animals were left to recover from the surgery under a heating source. Rats were individually housed after the surgery.
Eight weeks after myocardial infarction surgery, rats were randomly assigned to 3 groups (vehicle, H2 and B7-33), re-anaesthetised (2-3% isoflurane) and an osmotic mini-pump (model 2ML4, Alzet, Cupertino, Calif.) implanted intraperitoneally. Vehicle (saline), native H2 relaxin (0.5 mg/kg/day) or B7-33 C11.23S (0.5 mg/kg/day) was continuously administered for 28 days. At the conclusion of treatment, rats were anaesthetized (sodium pentobarbitone, 60 mg/kg i.p.) and the left ventricular end-diastolic pressure determined prior to decapitation and removal of the heart for histological analysis.

[3] = biological target: T1, RXFP1 (Homo sapiens, UniProt Q9HBX9); experiment: Eu-labelled H2 relaxin competition binding, whole HEK-293T cells stably transfected with RXFP1; details: RXFP1-expressing cells, Eu-labelled H2 relaxin; FIG. 2A
T1 construct: expressed in transfected cells; host or cells: HEK-293T
T1 sequence (Q9HBX9 1-757): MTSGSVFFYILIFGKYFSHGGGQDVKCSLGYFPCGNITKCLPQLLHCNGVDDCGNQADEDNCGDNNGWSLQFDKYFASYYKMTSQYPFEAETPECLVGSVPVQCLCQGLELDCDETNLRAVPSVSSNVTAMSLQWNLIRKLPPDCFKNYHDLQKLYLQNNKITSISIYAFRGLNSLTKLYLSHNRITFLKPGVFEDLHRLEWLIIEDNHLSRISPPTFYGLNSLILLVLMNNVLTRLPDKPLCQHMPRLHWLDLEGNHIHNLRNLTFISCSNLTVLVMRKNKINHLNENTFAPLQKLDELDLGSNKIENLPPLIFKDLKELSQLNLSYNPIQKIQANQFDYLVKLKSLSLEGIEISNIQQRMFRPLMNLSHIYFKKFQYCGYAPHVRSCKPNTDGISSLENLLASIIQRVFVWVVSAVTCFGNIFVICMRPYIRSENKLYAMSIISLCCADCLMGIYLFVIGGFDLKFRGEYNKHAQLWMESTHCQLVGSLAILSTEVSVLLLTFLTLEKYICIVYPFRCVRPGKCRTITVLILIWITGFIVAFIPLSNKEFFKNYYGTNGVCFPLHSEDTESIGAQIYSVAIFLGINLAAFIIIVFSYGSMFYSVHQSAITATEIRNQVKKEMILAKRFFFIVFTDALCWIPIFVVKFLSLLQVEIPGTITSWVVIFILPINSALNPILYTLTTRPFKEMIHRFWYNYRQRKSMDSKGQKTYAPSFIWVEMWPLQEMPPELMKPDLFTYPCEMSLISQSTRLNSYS
Method: Human embryonic kidney (HEK-293T) cells stably transfected with RXFP1 were cultured in RPMI 1640 medium supplemented with 10% fetal calf serum, 100 μg/ml penicillin, 100 μg/ml streptomycin and 2 mM L-glutamine and plated into 96-well pre-coated with poly-L-lysine for whole cell binding assays. Competition binding experiments were conducted with Eu^3+-labelled H2 relaxin (as per Shabanpoor et al., 2012, Biochem Biophys Res Commun. 420, 253-256) in the absence or presence of increasing concentrations of unlabelled relaxin-2 B chain derivatives. Nonspecific binding was determined with an excess of unlabelled peptides (500 nM H2 relaxin). Fluorescent measurements were recorded at an excitation wavelength of 340 nm and emission of 614 nm on a Victor plate reader (Perkin-Elmer Inc.). […] Statistical differences in pIC50 values were analyzed using one-way analysis of variance coupled to Newman Keul's multiple comparison test for multiple group comparisons in GraphPad Prism 6.

[4] = tested on: RM1 mouse prostate tumour cells; experiment: Prostate tumour growth after injection of RM1 cells into prostates of C57BL/6 mice; type: in vivo; details: day 10 after RM1 cells, s.c. mini-pump from day 2, H2 relaxin 0.15, B7-33 C11.23S 0.075 mg/kg/day, vs untreated
Excerpt: Seven to eight-week old male 129SV mice (which are sensitive to tissue injury and fibrosis) and age-matched female Balb/c mice (which are sensitive to changes in airway hyperresponsiveness) were used for the induction of isoproterenol-induced cardiomyopathy and ovalbumin-induced chronic allergic airways disease, respectively. 16 five week-old male C57BL/6 mice were used in the induction of prostate cancer growth. All animals were obtained from Monash Animal Services (Monash University, Clayton, Victoria, Australia) and housed under standard conditions (maintained on an 12 h light-12 h dark lighting cycle with free access to food and water) in the Department of Pharmacology Animal Room at Monash University.
H2 relaxin can induce prostate and other tumour growth. To measure the effect of B7-33 C11.23S on tumour growth, 16 five week-old male C57BL/6 mice (obtained from Monash Animal Services) were injected with 5000 RM1 (mouse prostate tumor) cells into their prostates to induce tumor growth. One sub-group of mice n=5) was left untreated until day 10 post-RM1 cell administration. […]

CC[C@H](C)[C@H](NC(=O)[C@H](C)NC(=O)[C@@H](NC(=O)[C@H](CCC(N)=O)NC(=O)[C@H](C)NC(=O)[C@H](CCCNC(=N)N)NC(=O)[C@@H](NC(=O)[C@H](CC(C)C)NC(=O)[C@H](CCC(=O)O)NC(=O)[C@H](CCCNC(=N)N)NC(=O)CNC(=O)[C@H](CO)NC(=O)[C@H](CC(C)C)NC(=O)[C@H](CCCCN)NC(=O)[C@@H](NC(=O)[C@@H](N)C(C)C)[C@@H](C)CC)C(C)C)[C@@H](C)CC)C(=O)N[C@@H](CO)C(=O)NCC(=O)N[C@@H](CCSC)C(=O)N[C@@H](CO)C(=O)N[C@H](C(=O)N[C@@H](Cc1c[nH]c2ccccc12)C(=O)N[C@@H](CO)C(=O)N[C@@H](CCCCN)C(=O)N[C@@H](CCCNC(=N)N)C(=O)N[C@@H](CO)C(=O)N[C@@H](CC(C)C)C(N)=O)[C@@H](C)O [B7-33 C11.23S] (H-VIKLSGRELVRAQIAISGMSTWSKRSL-NH2)
pERK potency in rat renal myofibroblast (in words) ([1]; rat renal myofibroblasts natively expressing RXFP1, FIG. 4): very high pERK potency | Time of peak ERK1/2 activation after peptide treatment ([1]; rat renal myofibroblasts, 100 nM peptide): 5 min | ERK1/2 activation, level of efficacy ([1]; rat renal myofibroblasts, 100 nM peptide, up to 20 minutes, FIG. 4): slightly higher level of efficacy as H2 relaxin | Percentage of collagen in the interstitial area of the left ventricle ([2]; 0.5 mg/kg/day i.p. mini-pump for 28 days from 8 weeks after MI): significant reduction | Left ventricular end-diastolic pressure (LVEDP) ([2]; 12 weeks after myocardial infarction): reduced | Binding to RXFP1 (in words) [3]: binds RXFP1, but with lower affinity than H2 relaxin | Prostate tumour size [4]: did not result in changes in tumour size relative to untreated

Source: US10081662B2, “Modified relaxin B chain peptides” (The Florey Institute of Neuroscience and Mental Health, priority 2014, dated 2018)
